# According to US8741944B2, “Anti-infective agents against intracellular pathogens” (priority 2007, dated 2014):
# Where two headings read alike, the source gives them in different places.
# Assays:
# SN12C (Renal Cancer) = assay: NCI DTP tumor cell line screen (SRB), SN12C
# Method: (§1) For a typical screening experiment, cells are inoculated into 96 well microtiter plates in 100 μL at plating densities ranging from 5,000 to 40,000 cells/well depending on the doubling time of individual cell lines. After cell inoculation, the microtiter plates are incubated at 37° C., 5% CO2, 95% air and 100% relative humidity for 24 h prior to addition of experimental drugs.
# (§2) After 24 h, two plates of each cell line are fixed in situ with TCA, to represent a measurement of the cell population for each cell line at the time of drug addition (Tz). Experimental drugs are solubilized in dimethyl sulfoxide at 400-fold the desired final maximum test concentration and stored frozen prior to use. At the time of drug addition, an aliquot of frozen concentrate is thawed and diluted to twice the desired final maximum test concentration with complete medium containing 50 μg/ml gentamicin. Additional four, 10-fold or ½ log serial dilutions are made to provide a total of five drug concentrations plus control. Aliquots of 100 μl of these different drug dilutions are added to the appropriate microtiter wells already containing 100 μl of medium, resulting in the required final drug concentrations.
# (§3) Following drug addition, the plates are incubated for an additional 48 h at 37° C., 5% CO2, 95% air, and 100% relative humidity. For adherent cells, the assay is terminated by the addition of cold TCA. Cells are fixed in situ by the gentle addition of 50 μl of cold 50% (w/v) TCA (final concentration, 10% TCA) and incubated for 60 minutes at 4° C. The supernatant is discarded, and the plates are washed five times with tap water and air dried. Sulforhodamine B (SRB) solution (1001) at 0.4% (w/v) in 1% acetic acid is added to each well, and plates are incubated for 10 minutes at room temperature. After staining, unbound dye is removed by washing five times with 1% acetic acid and the plates are air dried. Bound stain is subsequently solubilized with 10 mM trizma base, and the absorbance is read on an automated plate reader at a wavelength of 515 nm. For suspension cells, the methodology is the same except that the assay is terminated by fixing settled cells at the bottom of the wells by gently adding 50 μl of 80% TCA (final concentration, 16% TCA). Using the seven absorbance measurements [time zero, (Tz), control growth, (C), and test growth in the presence of drug at the five concentration levels (Ti)], the percentage growth is calculated at each of the drug concentrations levels. Percentage growth inhibition is calculated as: [(Ti−Tz)/(C−Tz)]×100 for concentrations for which Ti>/=Tz [(Ti−Tz)/Tz]×100 for concentrations for which Ti<Tz
# (§4) Three dose response parameters are calculated for each experimental agent. […] The drug concentration resulting in total growth inhibition (TGI) is calculated from Ti=Tz. […] Values are calculated for each of these three parameters if the level of activity is reached; however, if the effect is not reached or is exceeded, the value for that parameter is expressed as greater or less than the maximum or minimum concentration tested.
# [1] = tested on: NCI-H460 (Non-Small Cell Lung Cancer)
# Method: as §1, §2, §3, §4
# SK-MEL-28 (Melanoma) = assay: NCI DTP tumor cell line screen (SRB), SK-MEL-28
# Method: as §1, §2, §3, §4
# SR (Leukemia) = assay: NCI DTP tumor cell line screen (SRB), SR
# Method: as §1, §2, §3, §4
# KM12 (Colon Cancer) = assay: NCI DTP tumor cell line screen (SRB), KM12
# Method: as §1, §2, §3, §4
# [2] = tested on: sixty human tumor cell lines; assay: NCI DTP sixty human tumor cell line screen (SRB), means over the panel
# OVCAR-5 (Ovarian Cancer) = assay: NCI DTP tumor cell line screen (SRB), OVCAR-5
# Method: as §1, §2, §3, §4
# OVCAR-4 (Ovarian Cancer) = assay: NCI DTP tumor cell line screen (SRB), OVCAR-4
# Method: as §1, §2, §3, §4
# PC-3 (Prostate Cancer) = assay: NCI DTP tumor cell line screen (SRB), PC-3
# Method: as §1, §2, §3, §4
# M14 (Melanoma) = assay: NCI DTP tumor cell line screen (SRB), M14
# Method: as §1, §2, §3, §4
# MCF7 (Breast Cancer) = assay: NCI DTP tumor cell line screen (SRB), MCF7; details: MCF7
# Method: as §1, §2, §3, §4
# HT29 (Colon Cancer) = assay: NCI DTP tumor cell line screen (SRB), HT29
# Method: as §1, §2, §3, §4
# HCT-15 (Colon Cancer) = assay: NCI DTP tumor cell line screen (SRB), HCT-15; details: HCT-15
# Method: as §1, §2, §3, §4
# COLO 205 (Colon Cancer) = assay: NCI DTP tumor cell line screen (SRB), COLO 205
# Method: as §1, §2, §3, §4
# OVCAR-8 (Ovarian Cancer) = assay: NCI DTP tumor cell line screen (SRB), OVCAR-8; details: OVCAR-8
# Method: as §1, §2, §3, §4
# [3] = tested on: A549/ATCC (Non-Small Cell Lung Cancer); assay: NCI DTP tumor cell line screen (SRB), A549/ATCC
# Method: as §1, §2, §3, §4
smiles,measurement,setting,value
"NCC(=O)Nc1ccc(-n2nc(C(F)(F)F)cc2-c2ccc3c(ccc4ccccc43)c2)cc1 [Compound 70, 2-Amino-N-{4-[5-(2-phenanthrenyl)-3-(trifluoromethyl)-1H-pyrazol-1-yl]-phenyl}-acetamide]",TGI,SN12C (Renal Cancer),3.51E−06
same,Mean Optical Densities,SN12C (Renal Cancer); Log10 Concentration −4.0,0.308
same,Mean Optical Densities,SN12C (Renal Cancer); Log10 Concentration −5.0,0.203
same,Percent Growth,SN12C (Renal Cancer); Log10 Concentration −5.0,−65%
same,Mean Optical Densities,SN12C (Renal Cancer); Log10 Concentration −6.0,1.093
same,Percent Growth,SN12C (Renal Cancer); Log10 Concentration −6.0,78%
same,Mean Optical Densities,SN12C (Renal Cancer); Log10 Concentration −7.0,1.194
same,Percent Growth,SN12C (Renal Cancer); Log10 Concentration −7.0,94%
same,Mean Optical Densities,SN12C (Renal Cancer); Log10 Concentration −8.0,1.209
same,Percent Growth,SN12C (Renal Cancer); Log10 Concentration −8.0,96%
same,TGI,[1],2.64E−06
same,Mean Optical Densities,[1]; Log10 Concentration −4.0,0.213
same,Mean Optical Densities,[1]; Log10 Concentration −5.0,0.173
same,Mean Optical Densities,[1]; Log10 Concentration −6.0,0.830
same,Percent Growth,[1]; Log10 Concentration −6.0,34%
same,Mean Optical Densities,[1]; Log10 Concentration −7.0,1.499
same,Percent Growth,[1]; Log10 Concentration −7.0,77%
same,Mean Optical Densities,[1]; Log10 Concentration −8.0,1.799
same,Percent Growth,[1]; Log10 Concentration −8.0,97%
same,TGI,SK-MEL-28 (Melanoma),2.64E−06
same,Mean Optical Densities,SK-MEL-28 (Melanoma); Log10 Concentration −4.0,0.218
same,Mean Optical Densities,SK-MEL-28 (Melanoma); Log10 Concentration −5.0,0.071
same,Percent Growth,SK-MEL-28 (Melanoma); Log10 Concentration −5.0,−87%
same,Mean Optical Densities,SK-MEL-28 (Melanoma); Log10 Concentration −6.0,1.130
same,Percent Growth,SK-MEL-28 (Melanoma); Log10 Concentration −6.0,63%
same,Mean Optical Densities,SK-MEL-28 (Melanoma); Log10 Concentration −7.0,1.320
same,Percent Growth,SK-MEL-28 (Melanoma); Log10 Concentration −7.0,83%
same,Mean Optical Densities,SK-MEL-28 (Melanoma); Log10 Concentration −8.0,1.426
same,Percent Growth,SK-MEL-28 (Melanoma); Log10 Concentration −8.0,94%
same,TGI,SR (Leukemia),4.17E−06
same,Mean Optical Densities,SR (Leukemia); Log10 Concentration −4.0,0.363
same,Mean Optical Densities,SR (Leukemia); Log10 Concentration −5.0,0.265
same,Percent Growth,SR (Leukemia); Log10 Concentration −5.0,−27%
same,Mean Optical Densities,SR (Leukemia); Log10 Concentration −6.0,0.605
same,Percent Growth,SR (Leukemia); Log10 Concentration −6.0,45%
same,Mean Optical Densities,SR (Leukemia); Log10 Concentration −7.0,0.796
same,Percent Growth,SR (Leukemia); Log10 Concentration −7.0,80%
same,Mean Optical Densities,SR (Leukemia); Log10 Concentration −8.0,0.816
same,Percent Growth,SR (Leukemia); Log10 Concentration −8.0,84%
same,TGI,KM12 (Colon Cancer),2.67E−06
same,Mean Optical Densities,KM12 (Colon Cancer); Log10 Concentration −4.0,0.264
same,Mean Optical Densities,KM12 (Colon Cancer); Log10 Concentration −5.0,0.146
same,Percent Growth,KM12 (Colon Cancer); Log10 Concentration −5.0,−73%
same,Mean Optical Densities,KM12 (Colon Cancer); Log10 Concentration −6.0,1.425
same,Percent Growth,KM12 (Colon Cancer); Log10 Concentration −6.0,54%
same,Mean Optical Densities,KM12 (Colon Cancer); Log10 Concentration −7.0,2.044
same,Percent Growth,KM12 (Colon Cancer); Log10 Concentration −7.0,91%
same,Mean Optical Densities,KM12 (Colon Cancer); Log10 Concentration −8.0,2.151
same,Percent Growth,KM12 (Colon Cancer); Log10 Concentration −8.0,98%
same,concentration range completely suppressing cell growth in a diverse range of tumor cell lines,[2],3 to 5 µM
same,GI50,"[2]; read-out: mean GI50 among the sixty cell lines, two-day treatment",1200 nM
same,mean TGI among the sixty cell lines,[2]; two-day treatment,3200 nM
same,TGI,OVCAR-5 (Ovarian Cancer),3.32E−06
same,Mean Optical Densities,OVCAR-5 (Ovarian Cancer); Log10 Concentration −4.0,0.149
same,Mean Optical Densities,OVCAR-5 (Ovarian Cancer); Log10 Concentration −5.0,0.087
same,Percent Growth,OVCAR-5 (Ovarian Cancer); Log10 Concentration −5.0,−83%
same,Mean Optical Densities,OVCAR-5 (Ovarian Cancer); Log10 Concentration −6.0,1.412
same,Percent Growth,OVCAR-5 (Ovarian Cancer); Log10 Concentration −6.0,90%
same,Mean Optical Densities,OVCAR-5 (Ovarian Cancer); Log10 Concentration −7.0,1.540
same,Percent Growth,OVCAR-5 (Ovarian Cancer); Log10 Concentration −7.0,103%
same,Mean Optical Densities,OVCAR-5 (Ovarian Cancer); Log10 Concentration −8.0,1.480
same,Percent Growth,OVCAR-5 (Ovarian Cancer); Log10 Concentration −8.0,97%
same,TGI,OVCAR-4 (Ovarian Cancer),3.41E−06
same,Mean Optical Densities,OVCAR-4 (Ovarian Cancer); Log10 Concentration −4.0,0.172
same,Mean Optical Densities,OVCAR-4 (Ovarian Cancer); Log10 Concentration −5.0,0.093
same,Percent Growth,OVCAR-4 (Ovarian Cancer); Log10 Concentration −5.0,−82%
same,Mean Optical Densities,OVCAR-4 (Ovarian Cancer); Log10 Concentration −6.0,1.086
same,Percent Growth,OVCAR-4 (Ovarian Cancer); Log10 Concentration −6.0,94%
same,Mean Optical Densities,OVCAR-4 (Ovarian Cancer); Log10 Concentration −7.0,1.073
same,Percent Growth,OVCAR-4 (Ovarian Cancer); Log10 Concentration −7.0,92%
same,Mean Optical Densities,OVCAR-4 (Ovarian Cancer); Log10 Concentration −8.0,1.114
same,Percent Growth,OVCAR-4 (Ovarian Cancer); Log10 Concentration −8.0,99%
same,TGI,PC-3 (Prostate Cancer),2.38E−06
same,Mean Optical Densities,PC-3 (Prostate Cancer); Log10 Concentration −4.0,0.108
same,Mean Optical Densities,PC-3 (Prostate Cancer); Log10 Concentration −5.0,0.055
same,Percent Growth,PC-3 (Prostate Cancer); Log10 Concentration −5.0,−77%
same,Mean Optical Densities,PC-3 (Prostate Cancer); Log10 Concentration −6.0,0.593
same,Percent Growth,PC-3 (Prostate Cancer); Log10 Concentration −6.0,47%
same,Mean Optical Densities,PC-3 (Prostate Cancer); Log10 Concentration −7.0,0.763
same,Percent Growth,PC-3 (Prostate Cancer); Log10 Concentration −7.0,69%
same,Mean Optical Densities,PC-3 (Prostate Cancer); Log10 Concentration −8.0,0.910
same,Percent Growth,PC-3 (Prostate Cancer); Log10 Concentration −8.0,89%
same,TGI,M14 (Melanoma),5.37E−06
same,Mean Optical Densities,M14 (Melanoma); Log10 Concentration −4.0,0.256
same,Mean Optical Densities,M14 (Melanoma); Log10 Concentration −5.0,0.211
same,Percent Growth,M14 (Melanoma); Log10 Concentration −5.0,−33%
same,Mean Optical Densities,M14 (Melanoma); Log10 Concentration −6.0,0.916
same,Percent Growth,M14 (Melanoma); Log10 Concentration −6.0,90%
same,Mean Optical Densities,M14 (Melanoma); Log10 Concentration −7.0,0.974
same,Percent Growth,M14 (Melanoma); Log10 Concentration −7.0,98%
same,Mean Optical Densities,M14 (Melanoma); Log10 Concentration −8.0,0.975
same,Percent Growth,M14 (Melanoma); Log10 Concentration −8.0,98%
same,TGI,MCF7 (Breast Cancer),2.72E−06
same,Mean Optical Densities,MCF7 (Breast Cancer); Log10 Concentration −4.0,0.255
same,Mean Optical Densities,MCF7 (Breast Cancer); Log10 Concentration −5.0,0.196
same,Mean Optical Densities,MCF7 (Breast Cancer); Log10 Concentration −6.0,0.982
same,Mean Optical Densities,MCF7 (Breast Cancer); Log10 Concentration −7.0,1.541
same,Mean Optical Densities,MCF7 (Breast Cancer); Log10 Concentration −8.0,1.566
same,TGI,HT29 (Colon Cancer),2.64E−06
same,Mean Optical Densities,HT29 (Colon Cancer); Log10 Concentration −4.0,0.159
same,Mean Optical Densities,HT29 (Colon Cancer); Log10 Concentration −5.0,0.075
same,Percent Growth,HT29 (Colon Cancer); Log10 Concentration −5.0,−65%
same,Mean Optical Densities,HT29 (Colon Cancer); Log10 Concentration −6.0,0.801
same,Percent Growth,HT29 (Colon Cancer); Log10 Concentration −6.0,47%
same,Mean Optical Densities,HT29 (Colon Cancer); Log10 Concentration −7.0,1.299
same,Percent Growth,HT29 (Colon Cancer); Log10 Concentration −7.0,88%
same,Percent Growth,HT29 (Colon Cancer); Log10 Concentration −8.0,92%
same,TGI,HCT-15 (Colon Cancer),3.19E−06
same,Mean Optical Densities,HCT-15 (Colon Cancer); Log10 Concentration −5.0,0.149
same,Percent Growth,HCT-15 (Colon Cancer); Log10 Concentration −5.0,−47%
same,Mean Optical Densities,HCT-15 (Colon Cancer); Log10 Concentration −6.0,0.561
same,Percent Growth,HCT-15 (Colon Cancer); Log10 Concentration −6.0,47%
same,Mean Optical Densities,HCT-15 (Colon Cancer); Log10 Concentration −7.0,0.599
same,Percent Growth,HCT-15 (Colon Cancer); Log10 Concentration −7.0,54%
same,Mean Optical Densities,HCT-15 (Colon Cancer); Log10 Concentration −8.0,0.760
same,Percent Growth,HCT-15 (Colon Cancer); Log10 Concentration −8.0,81%
same,Mean Optical Densities,COLO 205 (Colon Cancer); Log10 Concentration −4.0,0.239
same,Mean Optical Densities,COLO 205 (Colon Cancer); Log10 Concentration −5.0,0.104
same,Percent Growth,COLO 205 (Colon Cancer); Log10 Concentration −5.0,−53%
same,Mean Optical Densities,COLO 205 (Colon Cancer); Log10 Concentration −6.0,0.916
same,Percent Growth,COLO 205 (Colon Cancer); Log10 Concentration −6.0,58%
same,Mean Optical Densities,COLO 205 (Colon Cancer); Log10 Concentration −7.0,1.252
same,Percent Growth,COLO 205 (Colon Cancer); Log10 Concentration −7.0,87%
same,Mean Optical Densities,COLO 205 (Colon Cancer); Log10 Concentration −8.0,1.286
same,Percent Growth,COLO 205 (Colon Cancer); Log10 Concentration −8.0,89%
same,TGI,OVCAR-8 (Ovarian Cancer),4.05E−06
same,Mean Optical Densities,OVCAR-8 (Ovarian Cancer); Log10 Concentration −4.0,0.306
same,Mean Optical Densities,OVCAR-8 (Ovarian Cancer); Log10 Concentration −5.0,0.269
same,Percent Growth,OVCAR-8 (Ovarian Cancer); Log10 Concentration −5.0,−33%
same,Mean Optical Densities,OVCAR-8 (Ovarian Cancer); Log10 Concentration −6.0,0.755
same,Percent Growth,OVCAR-8 (Ovarian Cancer); Log10 Concentration −6.0,51%
same,Mean Optical Densities,OVCAR-8 (Ovarian Cancer); Log10 Concentration −7.0,1.114
same,Percent Growth,OVCAR-8 (Ovarian Cancer); Log10 Concentration −7.0,102%
same,Mean Optical Densities,OVCAR-8 (Ovarian Cancer); Log10 Concentration −8.0,1.078
same,Percent Growth,OVCAR-8 (Ovarian Cancer); Log10 Concentration −8.0,97%
same,TGI,[3],2.96E−06
same,Mean Optical Densities,[3]; Log10 Concentration −4.0,0.252
same,Mean Optical Densities,[3]; Log10 Concentration −5.0,0.155
same,Percent Growth,[3]; Log10 Concentration −5.0,−57%
same,Mean Optical Densities,[3]; Log10 Concentration −6.0,0.831
same,Percent Growth,[3]; Log10 Concentration −6.0,51%
same,Mean Optical Densities,[3]; Log10 Concentration −7.0,1.149
same,Percent Growth,[3]; Log10 Concentration −7.0,86%
same,Mean Optical Densities,[3]; Log10 Concentration −8.0,1.294
same,Percent Growth,[3]; Log10 Concentration −8.0,102%
